We go through 30 compounds from ChEMBL document CHEMBL1127848, “Three-dimensional quantitative structure-activity relationship of human immunodeficiency virus (I) protease inhibitors. 2. Predictive power using limited exploration of alternate binding modes” (J Med Chem, 1994).

The structures appear in SMILES notation.

For this experiment, the target named is Human immunodeficiency virus type 1 protease (Human immunodeficiency virus 1, UniProt Q72874). As to the kind of experiment: Inhibitory activity against HIV-1 Protease.
Regarding `CC[C@H](C)[C@H](NC(=O)[C@H](C(C)C)[C@@H](O)[C@H](O)[C@H](CC1CCCCC1)NC(=O)c1ncccc1OCSc1ccccc1)C(=O)NCc1nc2ccccc2[nH]1`, the IC50 – broadly, the concentration needed to halve the response being measured – is 315 nM. That is a sub-micromolar value.

On to `CC[C@H](C)[C@H](NC(=O)[C@H](C(C)C)[C@@H](O)[C@H](O)[C@H](CC1CCCCC1)NC(=O)c1ccccc1OCSc1ccccc1)C(=O)NCc1nc2ccccc2[nH]1`, for which 11.2 nM corresponded to half-maximal inhibition (IC50).

As for `CC[C@H](C)[C@H](NC(=O)[C@H](C(C)C)C(O)[C@H](O)[C@H](CC1CCCCC1)NC(=O)c1ncccc1OCOc1ccccc1)C(=O)NCc1nc2ccccc2[nH]1` (stereo not given in full), half-maximal inhibition (IC50) was put at 540 nM.

Consider `CC[C@H](C)[C@H](NC(=O)[C@H](C(C)C)C(O)[C@H](O)[C@H](CC1CCCCC1)NC(=O)c1ccccc1OCOc1ccccc1)C(=O)NCc1nc2ccccc2[nH]1` (stereo not given in full), for which half-maximal inhibition (IC50) was put at 18 nM.

`CC[C@H](C)[C@H](NC(=O)[C@H](C(C)C)[C@@H](O)[C@H](O)[C@H](CC1CCCCC1)NC(=O)c1cccc(C)c1OCOc1ccccc1)C(=O)NCc1nc2ccccc2[nH]1`: the IC50 was 108 nM. Compared with the last compound, the IC50 is about 6-fold higher.

As to `CC[C@H](C)[C@H](NC(=O)[C@H](C(C)C)[C@@H](O)[C@H](O)[C@H](CC1CCCCC1)NC(=O)c1ccccc1)C(=O)NCc1nc2ccccc2[nH]1`, the IC50 is 80.9 nM.

In turn, `CC[C@H](C)[C@H](NC(=O)[C@H](C(C)C)[C@@H](O)[C@H](O)[C@H](CC1CCCCC1)NC(=O)C1CCCCC1)C(=O)NCc1ccccn1` gave an IC50 of 49.5 nM.

For the compound `CC(C)(C)NC(=O)N(Cc1ccccc1)CC(O)[C@H](Cc1ccccc1)NC(=O)[C@H](CC(N)=O)NC(=O)OCc1ccccc1` (stereo not given in full), 19 nM corresponded to half-maximal inhibition (IC50).

`CCCCNC(=O)N(CC(C)C)CC(O)[C@H](Cc1ccccc1)NC(=O)[C@H](CC(N)=O)NC(=O)c1ccc2ccccc2n1` (stereo not given in full) gave an IC50 of 126 nM. Against the preceding compound, the IC50 is about 6.6-fold higher.

With `CC(C)[C@@H](C(=O)N[C@H]1Cc2ccccc2[C@H]1O)[C@@H](O)[C@H](O)[C@H](CC1CCCCC1)NC(=O)c1ncccc1OCOc1ccccc1`, the IC50 was 540 nM.

The compound `CC(C)[C@@H](C(=O)N[C@H]1Cc2ccccc2[C@H]1O)[C@@H](O)[C@H](O)[C@H](CC1CCCCC1)NC(=O)c1ccccc1OCSc1ccccc1` gave an IC50 of 450 nM.

Regarding `CC(C)(C)NC(=O)N(CC(O)[C@H](Cc1ccccc1)NC(=O)[C@H](CC(N)=O)NC(=O)c1ccc2ccccc2n1)C1CCCCC1` (stereo not given in full), half-maximal inhibition (IC50) required 5 nM.

In the case of `CC(C)CN(CC(O)[C@H](Cc1ccccc1)NC(=O)[C@H](CC(N)=O)NC(=O)c1ccc2ccccc2n1)C(=O)NC(C)(C)C` (stereo not given in full), the half-maximal inhibitory concentration (IC50) was 6.01 nM.

`C[C@H](c1ccccc1)N(CC(O)[C@H](Cc1ccccc1)NC(=O)[C@H](CC(N)=O)NC(=O)OCc1ccccc1)C(=O)NC(C)(C)C` (stereo not given in full) gave an IC50 of 6500 nM.

Take `CC(C)(C)NC(=O)N(Cc1ccncc1)CC(O)[C@H](Cc1ccccc1)NC(=O)[C@H](CC(N)=O)NC(=O)OCc1ccccc1` (stereo not given in full): the IC50 was 105 nM.

For `CC(C)CCN(CC(O)[C@H](Cc1ccccc1)NC(=O)[C@H](CC(N)=O)NC(=O)OCc1ccccc1)C(=O)NC(C)(C)C` (stereo not given in full), the IC50 is 13 nM.

`CC(C)[C@@H](C(=O)N[C@H]1Cc2ccccc2[C@H]1O)[C@@H](O)[C@H](O)[C@H](CC1CCCCC1)NC(=O)c1ncccc1OCSc1ccccc1` showed an IC50 of 2400 nM.

As to `CCNC(=O)N(CC(C)C)CC(O)[C@H](Cc1ccccc1)NC(=O)[C@H](CC(N)=O)NC(=O)OCc1ccccc1` (stereo not given in full), the IC50 was 330 nM. Compared with the last compound, the IC50 is about 7.3-fold lower.

The compound `CCCCNC(=O)N(CC(C)C)CC(O)[C@H](Cc1ccccc1)NC(=O)[C@H](CC(N)=O)NC(=O)OCc1ccccc1` (stereo not given in full) had an IC50 of 942 nM. This IC50 lies about 2.9-fold higher than the previous one.

Regarding `CC(C)CCN(CC(O)[C@H](Cc1ccccc1)NC(=O)[C@H](CC(N)=O)NC(=O)c1ccc2ccccc2n1)C(=O)NC(C)(C)C` (stereo not given in full), the IC50 was 3 nM. Compared with the last compound, the IC50 is about 310-fold lower.

Turning to `CC(C)(C)NC(=O)N(Cc1ccccc1)CC(O)[C@H](Cc1ccccc1)NC(=O)[C@H](CC(N)=O)NC(=O)c1ccc2ccccc2n1` (stereo not given in full), the half-maximal inhibitory concentration (IC50) was 3 nM.

`CC(C)(C)NC(=O)N(CC(O)[C@H](Cc1ccccc1)NC(=O)[C@H](CC(N)=O)NC(=O)OCc1ccccc1)C1CCCCC1` (stereo not given in full) gave an IC50 of 29 nM.

In the case of `CNC(=O)N(CC(C)C)CC(O)[C@H](Cc1ccccc1)NC(=O)[C@H](CC(N)=O)NC(=O)OCc1ccccc1` (stereo not given in full), the IC50 was 1500 nM. This IC50 is about 52-fold higher than that of the compound before.

As to `CC(c1ccccc1)N(CC(O)[C@H](Cc1ccccc1)NC(=O)[C@H](CC(N)=O)NC(=O)OCc1ccccc1)C(=O)NC(C)(C)C` (stereo not given in full), half-maximal inhibition (IC50) was put at 5090 nM.

Take `CC(C)CN(CC(O)[C@H](Cc1ccccc1)NC(=O)[C@H](CC(N)=O)NC(=O)OCc1ccccc1)C(=O)NC(C)C` (stereo not given in full): 260 nM corresponded to half-maximal inhibition (IC50).

With `CC(C)(C)NC(=O)N(Cc1ccncc1)CC(O)[C@H](Cc1ccccc1)NC(=O)[C@H](CC(N)=O)NC(=O)c1ccc2ccccc2n1` (stereo not given in full), it took 19 nM to reach half-maximal inhibition (IC50).

Compound `CCCNC(=O)N(CC(C)C)CC(O)[C@H](Cc1ccccc1)NC(=O)[C@H](CC(N)=O)NC(=O)OCc1ccccc1` (stereo not given in full) gave an IC50 of 543 nM.

`CC(C)[C@@H](C(=O)N[C@H]1Cc2ccccc2[C@H]1O)[C@@H](O)[C@H](O)[C@H](CC1CCCCC1)NC(=O)c1ccccc1OCOc1ccccc1` gave a half-inhibitory concentration (IC50) of 540 nM.

On to `CC(C)[C@@H](C(=O)N[C@H]1Cc2ccccc2[C@H]1O)[C@@H](O)[C@H](O)[C@H](CC1CCCCC1)NC(=O)c1ccccc1`, for which half-maximal inhibition (IC50) was put at 36 nM. This IC50 lies about 15-fold lower than the previous one.

Turning to `CC(C)CN(CC(O)[C@H](Cc1ccccc1)NC(=O)[C@H](CC(N)=O)NC(=O)OCc1ccccc1)C(=O)NC(C)(C)C` (stereo not given in full), it took 35 nM to reach half-maximal inhibition (IC50).
